Assay results reported in US7094909B2, “HIV protease inhibitors, compositions containing the same, their pharmaceutical uses and materials for their synthesis” (priority 2001, dated 2006).
Where two headings read alike, the source gives them in different places.

Columns and labels:
[1] = target: T1, HIV-1 protease (Q7S mutant form) (Human immunodeficiency virus type 1 group M subtype B, UniProt P04585, Q495S); assay: HIV-1 Protease RET assay; type: biochemical; settings: Ave. Ki (nM), RET assay, Q7S enzyme, Morrison tight binding fit
T1 construct: made in house
How it was run: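 Q7S HIV-1 protease, refolded from urea, 2 nM active dimer with 5 μM EDANS/DABCYL peptide cleaved at Tyr-Pro; fluorescence 340/490 nm. 12 min at 37 °C in 0.1M sodium acetate pH 4.8, 1M NaCl, 10% DMSO. Ki from Morrison tight-binding fit.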

[2] = system: HIV-1 (HIV-1 RF, HIV-1 NL4-3) in CEM-SS / MT-2 cells; assay: Cytopathic effect (CPE) inhibition assay (XTT/MTT dye reduction); type: cell-based
How it was run: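 CEM-SS or MT-2 cells were infected with HIV-1 RF or NL4-3 (moi 0.025–0.819) and plated at 2×10^4 cells/well with half-log compound dilutions for 6 days. Viability was read by XTT formazan at 450 nm after 4 h. EC50 restores formazan to 50% of uninfected untreated cells, CC50 halves it in uninfected cells, and TI = CC50/EC50.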

[3] = system: HIV-1 NL4-3 or HIV-1 NL4-3(I84V/L90M); assay: Susceptibility assay, p24 ELISA in infected MT-2 cells; type: cell-based; settings: Human immunodeficiency virus 1, NL43, MT2, read-out: EC50 or IC50 (mM), values without asterisk (EC50)
Protocol: T-cell lines, CEM-SS, and MT-2, and viruses HIV-1 RF and HIV-1 NL4-3 (pNL4-3) were obtained from the National Institutes of Health (AIDS Research and Reference Reagent Program, Bethesda, Md.).
Compounds were tested in phenotypic susceptibility assays at Virologic, Inc., (See Petropoulos C. J., Parkin N. T., Limoli K. L., Lie Y. S., Wrin T., Huang W., Tian H., Smith D., Winslow G. A., Capon D J, Whitcomb J M. 2000, “A novel phenotypic drug susceptibility assay for human immunodeficiency virus type 1,” Antimicrob Agents Chemother 44(4):920–928) or using the assay described here. MT-2 cells were infected with either HIV-1 NL4-3 or HIV-1 NL4-3([…]) and incubated in the presence of serial 0.5 log dilutions of test compounds. Three days later, culture supernatants were collected and virus production, as determined by p24 ELISA, was assayed. Percent inhibition was calculated as p24 concentration in compound-treated samples as compared to infected, compound-free controls. Inhibition of viral replication is determined by measuring reduction in HIV p24 present in the culture supernatant, using a Beckman-Coulter p24HIV-1 Ag EIA kit and following the supplied protocol. Absorbance is read on a MRX microplate reader (Dynex Technologies). The EC50 was calculated as the concentration of compound that effected a decrease in the p24 production by infected, compound-treated cells to 50% of that produced by infected, compound-free cells.

[4] = Human immunodeficiency virus 1, NL43, read-out: Ave CPE EC50

| SMILES | Ki [1] | EC50 [2, 4] | EC50 [3] | EC50 ([2]; Human immunodeficiency virus 1, NL43, read-out: Ave CPE EC50 (mM)) |
| --- | --- | --- | --- | --- |
| COc1ccc(CNC(=O)[C@H]2N(C(=O)[C@@H](O)[C@H](Cc3ccccc3)NC(=O)c3cccc(O)c3C)CC(F)(F)C2(C)C)cc1 [Example C25, (S)-4,4-Difluoro-1-[(2S,3S)-2-hydroxy-3-(3-hydroxy-2-methyl-benzoylamino)-4-phenyl-butyryl]-3,3-dimethyl-pyrrolidine-2-carboxylic acid 4-methoxy-benzylamide] | < 0.1 nM | 31 nM | 68 nM | – |
| CCCNC(=O)[C@H]1N(C(=O)[C@@H](O)[C@H](Cc2ccccc2)NC(=O)c2cccc(O)c2C)CC(F)(F)C1(C)C [Example C19, (S)-4,4-Difluoro-1-((2S,3S)-2-hydroxy-3-{[1-(3-hydroxy-2-methyl-phenyl)-methanoyl]-amino}-4-phenyl-butanoyl)-3,3-dimethyl-pyrrolidine-2-carboxylic acid propylamide] | < 0.1 nM | 55 nM | 84 nM | – |
| Cc1c(O)cccc1C(=O)N[C@@H](Cc1ccccc1)[C@H](O)C(=O)N1CC(F)(F)C(C)(C)[C@H]1C(=O)NCc1ccc2c(c1)OCO2 [Example C26, (S)-4,4-Difluoro-1-[(2S,3S)-2-hydroxy-3-(3-hydroxy-2-methyl-benzoylamino)-4-phenyl-butyryl]-3,3-dimethyl-pyrrolidine-2-carboxylic acid (1,3-benzodioxol-5-ylmethyl)-amide] | < 0.1 nM | 76 nM | 131 nM | – |
| C/C=C(\C)CNC(=O)[C@H]1N(C(=O)[C@@H](O)[C@H](Cc2ccccc2)NC(=O)c2cccc(O)c2C)CSC12CCCC2 [Example C34, (R)-3-((2S,3S)-2-Hydroxy-3-{[1-(3-hydroxy-2-methyl-phenyl)-methanoyl]-amino}-4-phenyl-butanoyl)-1-thia-3-aza-spiro[4.4]nonane-4-carboxylic acid ((E)-2-methyl-but-2-enyl)-amide] | < 0.1 nM | – | 627 nM | 22 nM |
| Cc1c(F)cccc1CNC(=O)[C@@H]1CC(F)(F)CN1C(=O)[C@@H](O)[C@H](Cc1ccccc1)NC(=O)c1cccc(O)c1C [Example C5, (S)-4,4-Difluoro-1-((2S,3S)-2-hydroxy-3-{[1-(3-hydroxy-2-methyl-phenyl)-methanoyl]-amino}-4phenyl-butanoyl)-pyrrolidine-2-carboxylic acid 3-fluoro-2-methyl-benzylamide] | 0.6 nM | 669 nM | 1610 nM | – |
| Cc1ccccc1CNC(=O)[C@H]1N(C(=O)[C@@H](O)[C@H](Cc2ccccc2)NC(=O)c2cccc(O)c2C)CSC12CCCCC2 [Example C31, 3-(2-Hydroxy-3-{[1-(2-methyl-3-hydroxy-phenyl)-methanoyl]-amino}-4-phenyl-butanoyl)-1-thia-3-aza-spiro[4.5]decane-4-carboxylic acid 2-methyl-benzylamide] | 0.17 nM | 31 nM | 1070 nM | – |
| Cc1ccccc1CNC(=O)[C@H]1N(C(=O)[C@@H](O)[C@H](Cc2ccccc2)NC(=O)c2cccc(O)c2C)CSC12CCCC2 [Example C30, 3-(2-Hydroxy-3-{[1-(3-hydroxy-2-methyl-phenyl)-methanoyl]-amino}-4-phenyl-butanoyl)-1-thia-3-aza-spiro [4.4]nonane-4-carboxylic acid 2-methyl-benzamide] | < 0.1 nM | 18 nM | 273 nM | – |
| Cc1c(O)cccc1C(=O)N[C@@H](Cc1ccccc1)[C@H](O)C(=O)N1CSC(C)(C)[C@H]1C(=O)NCc1ccoc1 [Example A45, (R)-3-((2S,3S)-2-Hydroxy-3-{[1-(3-hydroxy-2-methyl-phenyl)-methanoyl]-amino}-4-phenyl-butanoyl)-5,5-dimethyl-thiazolidine-4-carboxylic acid (furan-3-ylmethyl)-amide] | < 0.1 nM | 34 nM | 48 nM | – |
| Cc1ccccc1CNC(=O)[C@H]1N(C(=O)[C@@H](O)[C@H](Cc2ccccc2)NC(=O)COc2c(Cl)cccc2Cl)CSC1(C)C [Example B77, (R)-3-{(2S,3S)-3-[2-(2,6-Dichloro-phenoxy)-acetylamino]-2-hydroxy-4-phenyl-butyryl}-5,5-dimethyl-thiazolidine-4-carboxylic acid 2-methyl-benzylamide] | < 0.1 nM | 143 nM | 1630 nM | – |
| Cc1c(O)cccc1C(=O)N[C@@H](Cc1ccccc1)[C@H](O)C(=O)N1CSC(C)(C)[C@H]1C(=O)N[C@H]1CCc2cc(F)ccc21 [Example A56, (R)-3-((2S,3S)-2-Hydroxy-3-{[1-(3-hydroxy-2-methyl-phenyl)-methanoyl]-amino}-4-phenyl-butanoyl)-5,5-dimethyl-thiazolidine-4-carboxylic acid ((S)-5-fluoro-indan-1-yl)-amide] | 0.27 nM | 42 nM | 378 nM | – |
| Cc1c(O)cccc1C(=O)N[C@@H](Cc1ccccc1)[C@H](O)C(=O)N1CSC(C)(C)[C@H]1C(=O)NCc1nccs1 [Example A41, (R)-3-((2S,3S)-2-Hydroxy-3-{[1-(3-hydroxy-2-methyl-phenyl)-methanoyl]-amino}-4-phenyl-butanoyl)-5,5-dimethyl-thiazolidine-4-carboxylic acid (thiazol-2-ylmethyl)-amide] | 0.17 nM | 145 nM | 242 nM | – |
| Cc1c(O)cccc1C(=O)N[C@@H](Cc1ccccc1)[C@H](O)C(=O)N1CSC2(CCCC2)[C@H]1C(=O)N[C@H]1CCc2ccccc21 [Example B83, (R)-3-((2S,3S)-2-Hydroxy-3-{[1-(3-hydroxy-2-methyl-phenyl)-methanoyl]-amino}-4-phenyl-butanoyl)-1-thia-3-aza-spiro[4.4]nonane-4-carboxylic acid (S)-indan-1-ylamide] | < 0.1 nM | 9 nM | 202 nM | – |
| Cc1c(O)cccc1C(=O)N[C@@H](Cc1ccccc1)[C@H](O)C(=O)N1CC(F)(F)C(C)(C)[C@H]1C(=O)N[C@H]1CCc2ccccc21 [Example C16, (S)-4,4-Difluoro-1-[(2S,3S)-2-hydroxy-3-(3-hydroxy-2-methyl-benzoylamino)-4-phenyl-butyryl]-3,3-dimethyl-pyrrolidine-2-carboxylic acid (S)-indan-1-ylamide] | < 0.1 nM | 19 nM | 201 nM | – |
| Cc1ccc(F)cc1CNC(=O)[C@@H]1CC(F)(F)CN1C(=O)[C@@H](O)[C@H](Cc1ccccc1)NC(=O)c1cccc(O)c1C [Example C6, (S)-4,4-Difluoro-1-((2S,3S)-2-hydroxy-3-{[1-(3-hydroxy-2-methyl-phenyl)-methanoyl]-amino}-4-phenyl-butanoyl)-pyrrolidine-2-carboxylic acid 5-fluoro-2-methyl-benzylamide] | 2.4 nM | 744 nM | 1940 nM | – |
| C#CCNC(=O)[C@H]1N(C(=O)[C@@H](O)[C@H](Cc2ccccc2)NC(=O)c2cccc(O)c2C)CC(F)(F)C1(C)C [Example C17, (S)-4,4-Difluoro-1-[(2S,3S)-2-hydroxy-3-(3-hydroxy-2-methyl-benzoylamino)-4-phenyl-butyryl]-3,3-dimethyl-pyrrolidine-2-carboxylic acid prop-2-ynylamide] | < 0.1 nM | 115 nM | 186 nM | – |
| Cc1c(O)cccc1C(=O)N[C@@H](Cc1ccccc1)[C@H](O)C(=O)N1COC(C)(C)[C@H]1C(=O)N[C@@H]1C=CCCC1 [Example C29, (S)-3-((2S,3S)-2-Hydroxy-3-{[1-(3-hydroxy-2-methyl-phenyl)-methanoyl]-amino}-4-phenyl-butanoyl)-5,5-dimethyl-oxazolidine-4-carboxylic acid (S)-cyclohex-2-enylamide] | 0.18 nM | 142 nM | 1360 nM | – |
| Cc1ccccc1CNC(=O)[C@H]1N(C(=O)[C@@H](O)[C@H](Cc2ccccc2)NC(=O)CC(F)(F)F)CSC1(C)C [Example B19, (R)-3-[(2S,3S)-2-Hydroxy-4-phenyl-3-(3,3,3-trifluoropropionylamino)-butyryl]-5,5-dimethyl-thiazolidine-4-carboxylic acid 2-methyl-benzylamide] | 1.4 nM | 1600 nM | 1300 nM | – |
